Results: ChEMBL document CHEMBL3822439, “Discovery of a novel 6,7-disubstituted-4-(2-fluorophenoxy)quinolines bearing 1,2,3-triazole-4-carboxamide moiety as potent c-Met kinase inhibitors” (Eur J Med Chem, 2016)

Tests used:
HT-29 [1] = test: Cytotoxicity against human HT-29 cells measured after 72 hrs by MTT assay; details: HT-29, 72 h
A549 [2] = test: Cytotoxicity against human A549 cells measured after 72 hrs by MTT assay; format: functional, cell-based; details: A549, 72 h
[3] = Cytotoxicity against human H460 cells measured after 72 hrs by MTT assay; details: NCI-H460, 72 h
[4] = Cytotoxicity against human MKN45 cells measured after 72 hrs by MTT assay; format: functional, cell-based; details: MKN-45, 72 h
[5] = Potency index, ratio of foretinib IC50 to compound IC50 for human H460 cells; format: functional
HT-29 [6] = test: Potency index, ratio of foretinib IC50 to compound IC50 for human HT-29 cells; format: functional
[7] = biological target: Macrophage-stimulating protein receptor (Homo sapiens, UniProt Q04912); test: Inhibition of Ron (unknown origin) using poly (Glu, Tyr) 4:1 as substrate incubated for 30 mins by HTRF assay
[8] = biological target: T1, Receptor-type tyrosine-protein kinase FLT3 (Homo sapiens, UniProt P36888); test: Inhibition of FLT3 (unknown origin) using poly (Glu, Tyr) 4:1 as substrate incubated for 30 mins by HTRF assay
T1 sequence (P36888 whole entry): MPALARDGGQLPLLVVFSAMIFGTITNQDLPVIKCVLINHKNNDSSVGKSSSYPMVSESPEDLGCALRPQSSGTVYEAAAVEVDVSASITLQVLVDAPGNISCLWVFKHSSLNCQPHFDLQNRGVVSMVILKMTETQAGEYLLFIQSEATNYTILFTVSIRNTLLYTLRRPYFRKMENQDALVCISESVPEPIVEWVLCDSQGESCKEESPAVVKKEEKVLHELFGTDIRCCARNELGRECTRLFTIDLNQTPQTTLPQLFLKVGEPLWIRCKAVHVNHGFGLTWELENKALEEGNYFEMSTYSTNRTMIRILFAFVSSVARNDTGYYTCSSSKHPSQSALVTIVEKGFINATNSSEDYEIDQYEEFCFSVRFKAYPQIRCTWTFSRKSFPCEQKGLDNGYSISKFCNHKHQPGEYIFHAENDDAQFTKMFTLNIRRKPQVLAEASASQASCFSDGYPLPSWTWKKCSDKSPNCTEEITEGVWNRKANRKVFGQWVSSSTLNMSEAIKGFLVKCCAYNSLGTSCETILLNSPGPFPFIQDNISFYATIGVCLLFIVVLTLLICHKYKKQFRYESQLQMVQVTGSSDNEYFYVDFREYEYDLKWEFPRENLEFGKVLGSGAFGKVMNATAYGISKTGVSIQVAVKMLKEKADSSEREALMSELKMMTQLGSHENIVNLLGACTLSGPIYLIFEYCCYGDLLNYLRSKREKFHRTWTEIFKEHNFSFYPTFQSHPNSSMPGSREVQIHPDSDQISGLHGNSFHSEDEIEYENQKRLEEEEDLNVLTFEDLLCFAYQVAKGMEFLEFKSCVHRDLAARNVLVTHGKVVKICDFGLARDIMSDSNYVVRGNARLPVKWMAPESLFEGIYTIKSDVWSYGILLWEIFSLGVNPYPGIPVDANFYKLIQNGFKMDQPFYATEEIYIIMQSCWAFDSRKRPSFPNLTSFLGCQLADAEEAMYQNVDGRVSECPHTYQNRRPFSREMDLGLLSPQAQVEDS

[9] = biological target: Vascular endothelial growth factor receptor 2 (Homo sapiens, UniProt P35968); test: Inhibition of VEGFR2 (unknown origin) using poly (Glu, Tyr) 4:1 as substrate incubated for 30 mins by HTRF assay
[10] = biological target: Epidermal growth factor receptor (Homo sapiens, UniProt P00533); test: Inhibition of EGFR (unknown origin) using poly (Glu, Tyr) 4:1 as substrate incubated for 30 mins by HTRF assay
[11] = biological target: Mast/stem cell growth factor receptor Kit (Homo sapiens, UniProt P10721); test: Inhibition of c-kit (unknown origin) using poly (Glu, Tyr) 4:1 as substrate incubated for 30 mins by HTRF assay
A549 [12] = test: Potency index, ratio of foretinib IC50 to compound IC50 for human A549 cells; format: functional
[13] = biological target: Hepatocyte growth factor receptor (Homo sapiens, UniProt P08581); test: Inhibition of c-Met (unknown origin) using poly (Glu, Tyr) 4:1 as substrate incubated for 30 mins by HTRF assay
MKN-45 = test: Potency index, ratio of foretinib IC50 to compound IC50 for human MKN45 cells; format: functional

Chain of Vascular endothelial growth factor receptor 2 (P35968 whole entry): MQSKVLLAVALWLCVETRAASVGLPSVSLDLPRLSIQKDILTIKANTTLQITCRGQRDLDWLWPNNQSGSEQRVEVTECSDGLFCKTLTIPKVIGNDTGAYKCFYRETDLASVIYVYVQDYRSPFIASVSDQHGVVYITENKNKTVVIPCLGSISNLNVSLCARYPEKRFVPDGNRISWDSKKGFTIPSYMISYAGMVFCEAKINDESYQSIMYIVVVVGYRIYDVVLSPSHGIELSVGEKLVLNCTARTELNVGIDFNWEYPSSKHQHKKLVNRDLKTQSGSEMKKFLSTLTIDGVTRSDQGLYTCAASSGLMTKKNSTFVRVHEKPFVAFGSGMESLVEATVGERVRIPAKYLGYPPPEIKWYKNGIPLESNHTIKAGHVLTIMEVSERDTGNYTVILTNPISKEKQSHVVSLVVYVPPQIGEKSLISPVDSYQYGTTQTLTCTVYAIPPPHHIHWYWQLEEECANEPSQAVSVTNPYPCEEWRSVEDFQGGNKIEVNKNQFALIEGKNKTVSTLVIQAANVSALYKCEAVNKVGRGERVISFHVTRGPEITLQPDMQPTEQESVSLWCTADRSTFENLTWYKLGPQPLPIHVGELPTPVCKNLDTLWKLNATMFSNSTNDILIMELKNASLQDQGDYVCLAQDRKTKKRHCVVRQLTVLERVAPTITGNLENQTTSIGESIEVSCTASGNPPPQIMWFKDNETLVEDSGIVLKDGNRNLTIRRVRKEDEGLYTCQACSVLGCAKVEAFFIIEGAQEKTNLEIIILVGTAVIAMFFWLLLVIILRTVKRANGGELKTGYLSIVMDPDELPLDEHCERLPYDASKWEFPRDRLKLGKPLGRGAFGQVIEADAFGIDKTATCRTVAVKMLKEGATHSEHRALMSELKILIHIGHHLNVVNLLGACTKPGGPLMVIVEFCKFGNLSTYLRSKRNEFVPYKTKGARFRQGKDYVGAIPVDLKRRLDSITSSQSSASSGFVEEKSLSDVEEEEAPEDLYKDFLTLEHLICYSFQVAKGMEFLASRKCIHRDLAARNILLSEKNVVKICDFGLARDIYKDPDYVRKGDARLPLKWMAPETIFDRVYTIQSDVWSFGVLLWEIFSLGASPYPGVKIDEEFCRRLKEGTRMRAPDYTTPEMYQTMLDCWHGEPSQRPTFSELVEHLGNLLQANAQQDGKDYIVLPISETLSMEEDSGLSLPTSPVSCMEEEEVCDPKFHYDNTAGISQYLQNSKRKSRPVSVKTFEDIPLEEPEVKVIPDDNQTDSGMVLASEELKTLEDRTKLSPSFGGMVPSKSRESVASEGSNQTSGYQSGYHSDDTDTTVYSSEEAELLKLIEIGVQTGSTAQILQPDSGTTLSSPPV
Chain of Macrophage-stimulating protein receptor (Q04912 25-304 limits assumed): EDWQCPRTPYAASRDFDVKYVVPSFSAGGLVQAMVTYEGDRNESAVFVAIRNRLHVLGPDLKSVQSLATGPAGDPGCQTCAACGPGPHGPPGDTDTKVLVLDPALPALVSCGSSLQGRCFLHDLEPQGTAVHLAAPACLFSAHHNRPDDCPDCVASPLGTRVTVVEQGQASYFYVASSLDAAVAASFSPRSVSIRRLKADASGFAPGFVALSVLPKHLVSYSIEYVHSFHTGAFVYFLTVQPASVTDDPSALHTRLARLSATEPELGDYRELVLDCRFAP
Chain of Macrophage-stimulating protein receptor (Q04912 310-1400 limits assumed): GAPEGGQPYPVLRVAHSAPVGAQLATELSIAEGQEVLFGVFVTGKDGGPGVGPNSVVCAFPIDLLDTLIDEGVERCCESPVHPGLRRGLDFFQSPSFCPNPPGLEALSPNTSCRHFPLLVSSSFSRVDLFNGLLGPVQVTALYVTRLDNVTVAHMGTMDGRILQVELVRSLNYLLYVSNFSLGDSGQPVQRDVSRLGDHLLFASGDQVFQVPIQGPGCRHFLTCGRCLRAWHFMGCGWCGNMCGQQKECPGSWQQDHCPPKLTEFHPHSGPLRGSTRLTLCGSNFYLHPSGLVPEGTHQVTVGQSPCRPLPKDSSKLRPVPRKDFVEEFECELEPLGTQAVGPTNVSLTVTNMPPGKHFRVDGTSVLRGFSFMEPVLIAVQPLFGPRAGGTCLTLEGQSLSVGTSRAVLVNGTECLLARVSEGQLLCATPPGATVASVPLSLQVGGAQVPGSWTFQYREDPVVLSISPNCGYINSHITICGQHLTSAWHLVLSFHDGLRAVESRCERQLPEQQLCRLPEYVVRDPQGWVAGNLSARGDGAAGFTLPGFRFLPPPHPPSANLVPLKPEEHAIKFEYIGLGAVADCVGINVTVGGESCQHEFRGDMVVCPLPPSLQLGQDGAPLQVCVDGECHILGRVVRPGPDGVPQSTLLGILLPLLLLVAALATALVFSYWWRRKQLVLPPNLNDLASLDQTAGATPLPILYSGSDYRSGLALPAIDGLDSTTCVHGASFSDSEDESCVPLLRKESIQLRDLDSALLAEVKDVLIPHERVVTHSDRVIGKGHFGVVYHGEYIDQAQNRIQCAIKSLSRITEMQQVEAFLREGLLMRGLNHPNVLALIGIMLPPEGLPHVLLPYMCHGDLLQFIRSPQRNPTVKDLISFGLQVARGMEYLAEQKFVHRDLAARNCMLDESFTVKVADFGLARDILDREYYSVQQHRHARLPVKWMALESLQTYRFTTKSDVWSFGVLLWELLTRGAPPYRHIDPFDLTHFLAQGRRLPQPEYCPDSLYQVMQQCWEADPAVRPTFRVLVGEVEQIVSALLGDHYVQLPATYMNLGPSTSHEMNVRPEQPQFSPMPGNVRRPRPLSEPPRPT
Chain of Mast/stem cell growth factor receptor Kit (P10721 whole entry): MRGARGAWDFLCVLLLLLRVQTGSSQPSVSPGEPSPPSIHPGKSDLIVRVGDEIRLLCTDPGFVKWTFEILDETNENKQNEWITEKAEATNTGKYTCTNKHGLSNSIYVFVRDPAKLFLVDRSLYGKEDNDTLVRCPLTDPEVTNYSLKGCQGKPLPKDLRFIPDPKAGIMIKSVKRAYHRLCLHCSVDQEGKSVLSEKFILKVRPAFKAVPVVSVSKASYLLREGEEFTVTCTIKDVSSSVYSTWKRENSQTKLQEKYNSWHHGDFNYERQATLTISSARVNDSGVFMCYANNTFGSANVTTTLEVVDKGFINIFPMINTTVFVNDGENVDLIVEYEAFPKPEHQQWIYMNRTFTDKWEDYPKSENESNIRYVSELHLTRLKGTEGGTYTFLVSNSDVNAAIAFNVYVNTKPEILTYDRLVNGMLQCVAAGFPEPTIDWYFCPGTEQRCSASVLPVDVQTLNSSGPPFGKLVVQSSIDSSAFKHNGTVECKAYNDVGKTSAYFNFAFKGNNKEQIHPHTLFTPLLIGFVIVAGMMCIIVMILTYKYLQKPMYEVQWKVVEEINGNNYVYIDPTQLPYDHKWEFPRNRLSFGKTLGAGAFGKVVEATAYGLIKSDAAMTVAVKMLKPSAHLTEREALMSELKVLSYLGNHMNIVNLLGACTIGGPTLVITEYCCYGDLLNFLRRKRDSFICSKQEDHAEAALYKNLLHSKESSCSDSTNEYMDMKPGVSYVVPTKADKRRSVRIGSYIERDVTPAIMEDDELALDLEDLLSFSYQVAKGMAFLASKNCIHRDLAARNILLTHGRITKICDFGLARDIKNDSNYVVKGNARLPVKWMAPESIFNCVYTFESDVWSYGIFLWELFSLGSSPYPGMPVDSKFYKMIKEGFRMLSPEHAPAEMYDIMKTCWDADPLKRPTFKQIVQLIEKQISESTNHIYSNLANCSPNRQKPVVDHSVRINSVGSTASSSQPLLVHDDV
Chain of Hepatocyte growth factor receptor (P08581 whole entry): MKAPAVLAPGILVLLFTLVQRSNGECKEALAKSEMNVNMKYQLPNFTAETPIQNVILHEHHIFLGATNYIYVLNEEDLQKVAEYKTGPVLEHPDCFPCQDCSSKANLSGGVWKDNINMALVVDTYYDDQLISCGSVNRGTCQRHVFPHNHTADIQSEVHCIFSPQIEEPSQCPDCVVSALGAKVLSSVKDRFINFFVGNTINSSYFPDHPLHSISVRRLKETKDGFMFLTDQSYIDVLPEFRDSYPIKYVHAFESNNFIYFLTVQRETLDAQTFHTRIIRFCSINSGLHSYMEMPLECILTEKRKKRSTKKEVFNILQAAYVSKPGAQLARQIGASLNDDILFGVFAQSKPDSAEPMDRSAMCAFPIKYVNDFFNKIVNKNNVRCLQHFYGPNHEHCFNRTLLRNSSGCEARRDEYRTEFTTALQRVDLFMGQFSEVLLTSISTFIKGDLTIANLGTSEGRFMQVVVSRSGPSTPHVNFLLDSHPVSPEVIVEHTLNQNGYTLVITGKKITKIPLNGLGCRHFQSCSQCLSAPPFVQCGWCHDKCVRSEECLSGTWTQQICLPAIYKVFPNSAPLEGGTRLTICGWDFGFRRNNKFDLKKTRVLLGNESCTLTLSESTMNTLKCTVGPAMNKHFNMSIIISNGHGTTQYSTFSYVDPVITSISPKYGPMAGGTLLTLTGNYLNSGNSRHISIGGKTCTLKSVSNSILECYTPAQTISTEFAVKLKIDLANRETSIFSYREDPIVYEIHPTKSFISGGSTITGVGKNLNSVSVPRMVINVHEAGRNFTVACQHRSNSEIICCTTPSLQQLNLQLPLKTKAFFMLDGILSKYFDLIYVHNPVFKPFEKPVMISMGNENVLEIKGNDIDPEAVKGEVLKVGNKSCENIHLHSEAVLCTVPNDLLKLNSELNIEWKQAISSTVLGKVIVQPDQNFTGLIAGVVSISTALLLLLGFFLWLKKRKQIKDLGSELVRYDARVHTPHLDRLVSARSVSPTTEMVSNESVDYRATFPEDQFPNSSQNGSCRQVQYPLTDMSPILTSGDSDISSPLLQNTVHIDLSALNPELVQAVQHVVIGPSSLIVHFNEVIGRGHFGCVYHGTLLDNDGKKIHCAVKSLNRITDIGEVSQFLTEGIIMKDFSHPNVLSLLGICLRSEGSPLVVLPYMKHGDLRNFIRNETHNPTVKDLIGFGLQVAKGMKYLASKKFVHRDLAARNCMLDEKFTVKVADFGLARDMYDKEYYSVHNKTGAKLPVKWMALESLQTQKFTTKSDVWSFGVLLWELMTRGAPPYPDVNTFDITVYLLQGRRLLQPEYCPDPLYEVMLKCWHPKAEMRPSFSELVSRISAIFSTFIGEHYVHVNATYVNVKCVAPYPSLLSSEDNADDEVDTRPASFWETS

Compound	IC50 (HT-29 [1]) [nM]	IC50 (A549 [2]) [nM]	IC50 [3] [nM]	IC50 [4] [nM]	further results
COc1cc2c(Oc3ccc(NC(=O)c4cn(-c5ccccc5)nn4)cc3F)ccnc2cc1OCCCN1CCC(C)CC1	190	140	210	90	
COc1cc2c(Oc3ccc(NC(=O)c4cn(-c5c(C)cccc5C)nn4)cc3F)ccnc2cc1OCCCN1CCCCC1	3690		3520	2140	
COc1cc2c(Oc3ccc(NC(=O)c4cn(-c5ccccc5F)nn4)cc3F)ccnc2cc1OCCCN1CCN(C)CC1	300	250	230	140	
COc1cc2c(Oc3ccc(NC(=O)c4cn(-c5ccccc5F)nn4)cc3F)ccnc2cc1OCCCN1CCC(C)CC1	210	250	190	130	
COc1cc2c(Oc3ccc(NC(=O)c4cn(-c5ccc(F)c(F)c5)nn4)cc3F)ccnc2cc1OCCCN1CCN(C)CC1	430	200	250	160	
COc1cc2c(Oc3ccc(NC(=O)c4cn(-c5c(C)cccc5C)nn4)cc3F)ccnc2cc1OCCCN1CCCC1	2240	1240	1560	3490	
COc1cc2c(Oc3ccc(NC(=O)c4cn(-c5ccccc5Cl)nn4)cc3F)ccnc2cc1OCCCN1CCOCC1	240	530	210	270	
COc1cc2c(Oc3ccc(NC(=O)c4cn(-c5c(Cl)cccc5Cl)nn4)cc3F)ccnc2cc1OCCCN1CCOCC1	270		290	110	
COc1cc2c(Oc3ccc(NC(=O)c4cn(-c5c(C)cccc5C)nn4)cc3F)ccnc2cc1OCCCN1CCOCC1	6140		4320		
COc1cc2c(Oc3ccc(NC(=O)c4cn(-c5ccccc5)nn4)cc3F)ccnc2cc1OCCCN1CCOCC1	350	720	450	110	
COc1cc2c(Oc3ccc(NC(=O)c4cn(-c5ccc(Br)cc5)nn4)cc3F)ccnc2cc1OCCCN1CCOCC1	260	180	130	90	
COc1cc2c(Oc3ccc(NC(=O)c4cn(-c5ccccc5F)nn4)cc3F)ccnc2cc1OCCCN1CCCCC1	290	2770	210	1290	
COc1cc2c(Oc3ccc(NC(=O)c4cn(-c5ccc(F)c(F)c5)nn4)cc3F)ccnc2cc1OCCCN1CCCCC1	210	220	250	310	
COc1cc2c(Oc3ccc(NC(=O)c4cn(-c5ccccc5C)nn4)cc3F)ccnc2cc1OCCCN1CCC(C)CC1	2380	3500	2730		
COc1cc2c(Oc3ccc(NC(=O)c4cn(-c5ccccc5C)nn4)cc3F)ccnc2cc1OCCCN1CCCC1	1200	900	1260		
COc1cc2c(Oc3ccc(NC(=O)c4cn(-c5c(C)cccc5C)nn4)cc3F)ccnc2cc1OCCCN1CCC(C)CC1	2450	3340	2360	4310	

Compound	IC50 (HT-29 [1]) [nM]	IC50 (A549 [2]) [nM]	IC50 [3] [nM]	IC50 [4] [nM]	further results
COc1cc2c(Oc3ccc(NC(=O)c4cn(-c5ccccc5)nn4)cc3F)ccnc2cc1OCCCN1CCN(C)CC1	180	160	200	60	
COc1cc2c(Oc3ccc(NC(=O)c4cn(-c5ccc(Br)cc5)nn4)cc3F)ccnc2cc1OCCCN1CCCC1	190	370	200	120	
COc1cc2c(Oc3ccc(NC(=O)c4cn(-c5ccccc5Cl)nn4)cc3F)ccnc2cc1OCCCN1CCCCC1	100	70	180	30	Ratio IC50 [5]: 1.2; Ratio IC50 (HT-29 [6]): 1.9; IC50 [7]: 346 nM; IC50 [8]: 8.91 nM; IC50 [9]: 96.7 nM; IC50 [10]: 529 nM; IC50 [11]: 9.36 nM; Ratio IC50 (A549 [12]): 1.6; IC50 [13]: 2.27 nM; Ratio IC50 (MKN-45): 1.1
COc1cc2c(Oc3ccc(NC(=O)c4cn(-c5ccccc5Cl)nn4)cc3F)ccnc2cc1OCCCN1CCN(C)CC1	160	150	290	70	
COc1cc2c(Oc3ccc(NC(=O)c4cn(-c5ccccc5C)nn4)cc3F)ccnc2cc1OCCCN1CCN(C)CC1	1430	3100	3650		
COc1cc2c(Oc3ccc(NC(=O)c4cn(-c5ccccc5Cl)nn4)cc3F)ccnc2cc1OCCCN1CCC(C)CC1	130	370	230	240	
COc1cc2c(Oc3ccc(NC(=O)c4cn(-c5ccc(F)c(F)c5)nn4)cc3F)ccnc2cc1OCCCN1CCC(C)CC1	810	1460	260	1290	
COc1cc2c(Oc3ccc(NC(=O)c4cn(-c5ccccc5)nn4)cc3F)ccnc2cc1OCCCN1CCCCC1	180	130	210	100	
COc1cc2c(Oc3ccc(NC(=O)c4cn(-c5ccccc5Cl)nn4)cc3F)ccnc2cc1OCCCN1CCCC1	150	330	190	70	
COc1cc2c(Oc3ccc(NC(=O)c4cn(-c5c(Cl)cccc5Cl)nn4)cc3F)ccnc2cc1OCCCN1CCCCC1	240	150	280		
COc1cc2c(Oc3ccc(NC(=O)c4cn(-c5ccccc5C)nn4)cc3F)ccnc2cc1OCCCN1CCCCC1	1340	3230	2100	3250	
COc1cc2c(Oc3ccc(NC(=O)c4cn(-c5c(Cl)cccc5Cl)nn4)cc3F)ccnc2cc1OCCCN1CCC(C)CC1	1390	320	270	120	
COc1cc2c(Oc3ccc(NC(=O)c4cn(-c5ccc(Br)cc5)nn4)cc3F)ccnc2cc1OCCCN1CCCCC1	260	230	360	150	
COc1cc2c(Oc3ccc(NC(=O)c4cn(-c5ccccc5)nn4)cc3F)ccnc2cc1OCCCN1CCCC1	180	360	280	260	
COc1cc2c(Oc3ccc(NC(=O)c4cn(-c5c(C)cccc5C)nn4)cc3F)ccnc2cc1OCCCN1CCN(C)CC1	2170	2180	4540		
